“Also recorded” adds a separate entry of the source. Marks after values point to notes of the source that are not given here.
How the values were obtained:
global DNA methylation [1] = assay: Global methylation analysis after continuous infusion Decitabine; type: in vivo, human; settings: patients treated with Decitabine
Method: All patients were treated with continuous infusion Decitabine given intravenously in an inpatient setting. […] The method for assessing DNA methylation was consistent and reproducible (Samlowski et al. Manuscript submitted to JCO).

[2] = system: patients with chronic lymphocytic leukemia; assay: Phase I dose-escalation of low-dose subcutaneous cladribine: clinical response and toxicity; type: in vivo, human
Method: Additional inclusion criteria included: KPS>70%, absolute neutrophil count >1500/μl, platelet count >100,000/μl, creatinine <2.0 mg/dl, normal liver function tests, no evidence of active infections on chest x-ray or urinalysis, and no concurrent chemotherapy or radiation therapy within 4 weeks of registration. Each patient signed an informed consent form approved by the University of Utah institutional review board, Clinical Cancer Investigation Committee, and Salt Lake City Veterans Administration Medical Center (SLC VAMC) Research and Development office.
The study accrued three patients from the VAMC and two patients from the Huntsman Cancer Institute at the University of Utah from January to May 2005. The patients were given three consecutive subcutaneous injections of cladribine (Leustatin) once every 28-32 days, starting at a dose of 0.05 mg per kg per day. The primary endpoint of the study was to find the dose of cladribine which caused a 20% decrease in global DNA methylation. Each patient served as their own control, and was dose-escalated every 28-32 days by 0.01 mg per kg per day if the primary endpoint was not met. Patients were given prophylactic doses of trimethoprim/sulfamethoxazole for the prevention of pneumocystis carinii. Patients allergic to trimethoprim/sulfamethoxazole were prescribed prophylactic doses of dapsone. No clinical endpoints were written into the study initially. […] A clinical response was defined by the NCI-sponsored working group for CLL. (See Cheson et al., BLOOD (1996) 87:4990-97). A patient was considered to have completed the study when the total white blood count was less than 10,000 cells/μl after two consecutive weekly blood counts. The entire study was conducted at the University of Utah General Clinical Research Center (GCRC). Leustatin was provided to the patients by Tibotec Therapeutics, a division of Johnson and Johnson.
Five patients with CLL were given subcutaneous injections of cladribine (Leustatin, provided by Tibotec Therapeutics) on three consecutive days at 28-32 day intervals, starting at a dose of 0.05 mg/kg/day, approximately ⅓ of the recommended therapeutic dose. {Juliusson, 1993 #10; Juliusson, 1996 #11} Five patients with a confirmed diagnosis of CLL (Table 3) participated in an Institutional Review Board-approved protocol between January and May 2005 after informed consent was obtained. […] Inclusion criteria included: KPS>70%, absolute neutrophil count >1500/μL, platelet count >100,000/μL, creatinine <2.0 mg/dL, normal liver function tests, no evidence of active infections, and no concurrent chemotherapy or radiation therapy within 4 weeks of registration.

[3] = system: miRNA expression in patients with CLL; assay: miRNA expression profile (Taqman real-time PCR) before and after DNA methylation inhibitor; type: in vivo, human; settings: for Changes in bcl-2, p53, mir-15, mir-16: after treatment; for miR-34a and miR-195 expression: patients with decreased lymphocytosis following drug treatment; for Expression of mir-17-3p, mir-21, mir-29a/b/c, mir-30e, mir-104, mir-126, mir-128a, mir-130a, mir-141, mir-142-3p, mir-148a, mir-151, mir-199a, mir-199a*, mir-301: real-time PCR, Early Access Human Panel; for microRNA expression after treatment: six patients on 5-azacytidine, one patient on 2-chloro-2-deoxyadenosine
Method: The DNA MI was measured in each patient before and after treatment with low dose cladribine.
(§1) Patients with CLL not in immediate need for cytoreductive therapy are enrolled on a dose-escalation study of low-dose 5-azacytidine (Vidaza, provided by the Pharmion Corporation.) Patients must have a KPS greater than 70%, white blood cell count greater than 20,000/μL hemoglobin >8 g/dL, platelet count >50,000/μL, normal liver, and renal functions. The study was carried out in 2 stages using a modification of the design proposed by Storer. {Storer, 1989 #16} In the first stage, patients were enrolled as single patient cohorts until either at least a 20% DNA MI inhibition or a greater than grade II toxicity. This allowed us to get closer to the target biologically effective dose before enrolling three patient cohorts. The global DNA MI and the miRNA expression profile of 6 patients before and after 5-azacytidine in the patients in the first stage of the study protocol was determined. Patients received 10-70 mg/m^2/day on days 1-3 and days 8-10.
Total RNA is extracted with Trizol, as previously described. {O'Donnell, 2005 #182} MiRNA expression was determined using the Applied Biosystems Taqman MicroRNA Assays Human Panel Early Access Kit. 10 ηg of RNA is used for each sample. cDNA is made using a looped RT primer provided by the kit. A 1 to 5 dilution of the cDNA is used for each sample and used for quantitative PCR on the ABI 7900HT Fast Real-Time PCR System. MiRNA-specific forward and reverse primers were provided in plates A and B. MiR-16 and let-7a served as positive controls while let-2 served as a negative control for human samples. Each miRNA were performed in quadriplicates. The miRNA expression was determined for CD5^+B-lymphocytes obtained from pediatric tonsils and from B-lymphocytes of 5 healthy controls.
Two different DNA methylation inhibitors were studied with respect to re-expression of microRNA: a DNA methyltransferase enzyme inhibitor, 5-azacytidine, and a methyl substrate inhibitor, 2-chloro-2-deoxyadenosine. […] Mir-17-3p and mir-21 have anti-apoptotic properties.

[4] = system: histone 3 (H3) methylation in CLL cells; assay: Histone methylation immunofluorescence of CLL cells after low-dose cladribine; type: in vivo, human
Method: The DNA and the mononuclear cells from the buffy coat were stored from the majority of patient samples. DNA was used for global DNA methylation studies and the mononuclear cells from the buffy coat were used to measure changes in H3 methylation by immunofluorescence before and after treatment.
3×10^4 CLL cells were mounted onto a slide by cytospin at 800 rpm for 3 minutes. They were then fixed in 95% ethanol/5% acetic acid for 10 minutes, followed by incubation in 0.25 M sodium butyrate for 24 hours at room temperature. The slides were stained by the Ventana automated immunostainer at 40° C. The slides were first stained with the primary antibody (1:50) for 32 minutes, followed by staining with the secondary antibody (sheep or rabbit IgG-FITC) (1:200) for 32 minutes. Slides were counterstained with DAPI (1:100) for 1 minute and hematoxylin (Ventana Medical Systems) for 4 minutes. Fluorescent detection was performed with the IView DAB detection kit (Ventana Medical Systems). Intensity of fluorescence was quantitated by a wide field fluorescent microscope and quantified by the Openlab modular imaging software. Signal to noise was optimized by the software.
A histone methylation assay that uses immunofluorescence to assess for histone methylation patterns after treatment with low-doses of cladribine was developed. […] These states are associated with transcription silencing. (See Jaskelioff et al., Nat. Cell. Biol. (2003) 5:395-99). In FIG. 4, an average of 100 cells was quantitated in the fluorescence intensity at each time point. The asterisk corresponds to days of treatment with cladribine. The error bars at each time point refer to the range of antibody staining in all cells. […] Multiparametric flow cytometry may be utilized to analyze further which subset of CLL cells respond to low doses of drugs.

global DNA methylation [5] = assay: Global DNA methylation (HPLC of digested genomic DNA) before and after low-dose cladribine; type: in vivo, human
HT-29 cells = assay: DNA microarray analysis of gene re-expression after Cladribine; type: cell-based; settings: HT-29 colon cancer cell line
Method: Lymphocytes are inclubated with 0-3 μM Cladribine.
Total RNA is isolated with RNeasy mini kits (Qiagen) from samples treated with Cladribine or vehicle. Approximately 1 μg may be amplified using Message Amp kits (Ambion). In replicate experiments, DNA from the vehicle or treated samples may be variably labeled with Cy-3 and Cy-5 dye and two microarray experiments may be performed for each dye-orientation. The utilized microarray slides consist of 9600 genes from the Research Genetics 40k sequence-verified human clone set. Each sample is deposited in duplicate, with a Lucidea (Amersham) robotic spotter. After hybridization, the microarray slides are scanned with an Axon scanner, and data quantified using Imagene and GeneSight software. The local background is subtracted. Data points with no signal, high background, or spot asymmetry are eliminated. Genes with low expression and low signal intensity are adjusted to a minimal raw value of 5 to avoid unwarranted mathematical distortions due division by decimals <<1. After calculating the ratio of the Cy5/Cy3 fluorescence signal intensity for each gene, data is normalized relative to the mean intensity from all genes. […] Data is analyzed with Spotfire software for statistical and hierarchical cluster analysis using an unweighted pair-group method with arithmetic mean with a Euclidean distance metric.

global DNA methylation [6] = assay: Global DNA MI (HPLC) before and after low-dose 5-azacytidine; type: in vivo, human
patients with CLL = assay: Dose-escalation study of low-dose 5-azacytidine: toxicity; type: in vivo, human
Method: as §1

[7] = low-dose cladribine s.c., 5 CLL patients
[8] = low-dose cladribine, 5 patients
[9] = CLL cells after low dose cladribine

SMILES: Nc1ncn([C@H]2C[C@H](O)[C@@H](CO)O2)c(=O)n1 [Decitabine, 5-aza-2-deoxycytidine]
- Decrease in global DNA methylation level achievable (global DNA methylation [1]): ≥ 20%

SMILES: Nc1nc(Cl)nc2c1ncn2[C@H]1C[C@H](O)[C@@H](CO)O1 [cladribine, 2-chlorodeoxyadenosine]
- Hemoglobin change over the course of the study ([2]; Patient 1): did not exhibit a decrease in hemoglobin
- Toxicities overall ([2]; low-dose cladribine 0.05-0.09 mg per kg per day): without toxicities
- Clinical response (NCI-sponsored working group) ([2]; low-dose cladribine 0.05-0.09 mg per kg per day, 3 days every 28 days): induce a clinical response in some patients; also recorded: partial response; also recorded: Three out of the five
- CR (number of patients) [2, 7]: 0
- PD (number of patients) [2, 7]: 1
- PR duration [2, 7]: 5 months
- Hematologic toxicities Grade III/IV (number of patients) [2, 8]: Grade III/IV (0)
- Non-hematologic toxicities Grade I/II (number of patients) [2, 8]: Grade I/II (2)*
- Non-hematologic toxicities Grade III/IV (number of patients) [2, 8]: Grade III/IV (0)
- Non-hematologic toxicities observed (adverse events) ([2]; low-dose cladribine, events in patient 4): Two grade II non-hematologic toxicities; also recorded: grade II lymphadenitis; also recorded: second grade II infection, a community-acquired pneumonia
- Decrease in lymphocyte count by 50% (time) ([2]; mean of the 5 patients on trial, range 8-67 days): 48 days (8-67 days)**
- Hemoglobin ([2]; mean of the 5 patients on trial, range 12.1-16 g/dL): 14.6 g/dL (12.1-16 g/dL)**
- Platelet count ([2]; mean of the 5 patients on trial, range 133-438k/μL): 224k/μL (133-438k/μL)**
- Reduction in circulating leukemia cells ([2]; patient 1, dose escalation): did not demonstrate a reduction in circulating leukemia cells until the third dose escalation of 0.07 mg per kg per day
- Outcome of patient 3 (previously treated) ([2]; patient 3, higher baseline global DNA methylation): progressive disease; also recorded: progression with a gradually increasing white blood count
- White blood cell count change ([2]; patient 5, first dose 0.05 mg per kg per day): dramatic reduction in white blood cell count
- Reduction in white blood cell count ([2]; patients 1, 2, 4 and 5 after low dose cladribine): ≥ 50%
- Changes in bcl-2, p53, mir-15, mir-16 [3]: No changes
- miR-34a and miR-195 expression [3]: upregulated
- Expression of mir-17-3p, mir-21, mir-29a/b/c, mir-30e, mir-104, mir-126, mir-128a, mir-130a, mir-141, mir-142-3p, mir-148a, mir-151, mir-199a, mir-199a*, mir-301 [3]: consistent microRNA upregulation
- microRNA expression after treatment [3]: Increased microRNA expression
- H3 dimethylated lysine 9 immunofluorescence [4, 9]: Little change
- H3 monomethylated lysine 4 immunofluorescence [4, 9]: decreased to levels akin to signal intensity obtained from total histone 3; also recorded: decrease transiently
- H3 monomethylated lysine 9 immunofluorescence [4, 9]: increase and rise
- H3 phospho-serine 10 immunofluorescence [4, 9]: decrease and rise
- H3 trimethylated lysine 9 immunofluorescence [4, 9]: increase in trimethylated lysine 9 approximately 1 week later and increase and rise
- Total histone 3 immunofluorescence ([4]; patient 4, 0.05 mg per kg per day cladribine): minimal changes
- Global decrease of DNA methylation after treatment (global DNA methylation [5]; 6 out of 7 patients, pooled with the six 5-azacytidine patients): 8%
- Effect on global DNA methylation (global DNA methylation [5]; low-dose cladribine): modest response; also recorded: not an effective DNA methylation inhibitor; also recorded: minimal inhibition in global DNA methylation
- Re-expression of silenced genes (DNA microarray) (HT-29 cells): re-expression of silenced genes in HT-29 cells

SMILES: Nc1ncn([C@@H]2O[C@H](CO)[C@@H](O)[C@H]2O)c(=O)n1 [5-azacytidine]
- Global decrease of DNA methylation after treatment (global DNA methylation [6]; 6 out of 7 patients, pooled with the 2-chloro-2-deoxyadenosine patient): 8%
- Decrease in global DNA MI (global DNA methylation [6]; four out of the 6 patients, low-dose 5-azacytidine): ~10%
- Change in global DNA MI (global DNA methylation [6]; patients 2 and 4, low-dose 5-azacytidine): No change
- Changes in bcl-2, p53, mir-15, mir-16 [3]: No changes
- miR-34a and miR-195 expression [3]: upregulated
- Expression of mir-17-3p, mir-21, mir-29a/b/c, mir-30e, mir-104, mir-126, mir-128a, mir-130a, mir-141, mir-142-3p, mir-148a, mir-151, mir-199a, mir-199a*, mir-301 [3]: consistent microRNA upregulation
- microRNA expression after treatment [3]: Increased microRNA expression
- Toxicity (patients with CLL; 5th patient, 60 mg/m^2/day): grade II thrombocytopenia and anemia
- Toxicity (patients with CLL; the other patients, 10-70 mg/m^2/day): No other toxicities were observed

Reference: US20110077215A1, “DNA Methylation As A Target For Diagnosis And Treatment Of Chronic Lymphocytic Leukema (CLL)” (THE UNIVERSITY OF UTAH RESEARCH FOUNDATION, priority 2005, published 2011)
